Measurements published in ChEMBL document CHEMBL5579808, “Development of 1,5-diarylpyrazoles as EGFR/JNK-2 dual inhibitors: design, synthesis, moleecular docking, and bioactivity evaluation” (Bioorg Med Chem Lett, 2024).
Calls of active or inactive are those of the source. The rule behind the calls is not given here.

What was measured:
HeLa [1] = test: Growth inhibition of human HeLa cells at 100 uM by WST-8 assay relative to control; type: functional; details: read-out: GI
K562 [2] = test: Antiproliferative activity against human K562 cells by WST-8 assay; type: functional, cell-based
[3] = Growth inhibition of human SUIT-2 cells at 100 uM by WST-8 assay relative to control; type: functional; details: read-out: GI
HeLa [4] = test: Antiproliferative activity against human HeLa cells by WST-8 assay; type: functional, cell-based
K562 [5] = test: Growth inhibition of human K562 cells at 100 uM by WST-8 assay relative to control; type: functional; details: read-out: GI
HepG2 [6] = test: Growth inhibition of human HepG2 cells at 100 uM by WST-8 assay relative to control; type: functional; details: read-out: GI
DLD-1 [7] = test: Growth inhibition of human DLD-1 cells at 100 uM by WST-8 assay relative to control; type: functional; details: read-out: GI
HepG2 [8] = test: Antiproliferative activity against human HepG2 cells by WST-8 assay; type: functional, cell-based
DLD-1 [9] = test: Antiproliferative activity against human DLD-1 cells by WST-8 assay; type: functional, cell-based
[10] = target: Epidermal growth factor receptor (Mus musculus, UniProt Q01279); test: Inhibition of recombinant mouse EGFR by ELISA
[11] = target: Mitogen-activated protein kinase 9 (Homo sapiens, UniProt P45984); test: Inhibition of JNK2 (unknown origin) incubated for 90 mins by ELISA
[12] = Antiproliferative activity against human SUIT-2 cells by WST-8 assay; type: functional, cell-based
HeLa [13] = test: Induction of cell cycle arrest at G1 phase in human HeLa cells at IC50 incubated for 24 hrs by PI staining based flow cytometry (reference value: 68 %); type: functional
HeLa [14] = test: Induction of apoptosis in human HeLa cells assessed as early apoptotic cells at 2 times IC50 incubated for 24 hrs by Annexin V-FITC/PI staining based flow cytometry (reference value: 0 %); type: functional
HeLa [15] = test: Induction of cell cycle arrest at S phase in human HeLa cells at IC50 incubated for 48 hrs by PI staining based flow cytometry (reference value: 8 %); type: functional
HeLa [16] = test: Induction of cell cycle arrest at S phase in human HeLa cells at IC50 incubated for 24 hrs by PI staining based flow cytometry (reference value: 8 %); type: functional
HeLa [17] = test: Induction of apoptosis in human HeLa cells assessed as total cells at 2 times IC50 incubated for 24 hrs by Annexin V-FITC/PI staining based flow cytometry (reference value: 1.8 %); type: functional
HeLa [18] = test: Induction of apoptosis in human HeLa cells assessed as necrotic cells at 2 times IC50 incubated for 24 hrs by Annexin V-FITC/PI staining based flow cytometry (reference value: 1.8 %); type: functional
HeLa [19] = test: Induction of cell cycle arrest at G2 phase in human HeLa cells at IC50 incubated for 48 hrs by PI staining based flow cytometry (reference value: 7 %); type: functional
HeLa [20] = test: Induction of cell cycle arrest at G2 phase in human HeLa cells at IC50 incubated for 24 hrs by PI staining based flow cytometry (reference value: 7 %); type: functional
HeLa [21] = test: Induction of apoptosis in human HeLa cells assessed as late apoptotic cells at 2 times IC50 incubated for 24 hrs by Annexin V-FITC/PI staining based flow cytometry (reference value: 0 %); type: functional
HeLa [22] = test: Induction of cell cycle arrest at G1 phase in human HeLa cells at IC50 incubated for 48 hrs by PI staining based flow cytometry (reference value: 68 %); type: functional
HeLa [23] = test: Induction of apoptosis in human HeLa cells assessed as total cells at half of IC50 incubated for 24 hrs by Annexin V-FITC/PI staining based flow cytometry (reference value: 1.8 %); type: functional
HeLa [24] = test: Induction of apoptosis in human HeLa cells assessed as late apoptotic cells at half of IC50 incubated for 24 hrs by Annexin V-FITC/PI staining based flow cytometry (reference value: 0 %); type: functional
HeLa [25] = test: Induction of apoptosis in human HeLa cells assessed as necrotic cells at half of IC50 incubated for 24 hrs by Annexin V-FITC/PI staining based flow cytometry (reference value: 1.8 %); type: functional
HeLa [26] = test: Induction of apoptosis in human HeLa cells assessed as early apoptotic cells at half of IC50 incubated for 24 hrs by Annexin V-FITC/PI staining based flow cytometry (reference value: 0 %); type: functional

Sequence of Epidermal growth factor receptor (Q01279 whole entry): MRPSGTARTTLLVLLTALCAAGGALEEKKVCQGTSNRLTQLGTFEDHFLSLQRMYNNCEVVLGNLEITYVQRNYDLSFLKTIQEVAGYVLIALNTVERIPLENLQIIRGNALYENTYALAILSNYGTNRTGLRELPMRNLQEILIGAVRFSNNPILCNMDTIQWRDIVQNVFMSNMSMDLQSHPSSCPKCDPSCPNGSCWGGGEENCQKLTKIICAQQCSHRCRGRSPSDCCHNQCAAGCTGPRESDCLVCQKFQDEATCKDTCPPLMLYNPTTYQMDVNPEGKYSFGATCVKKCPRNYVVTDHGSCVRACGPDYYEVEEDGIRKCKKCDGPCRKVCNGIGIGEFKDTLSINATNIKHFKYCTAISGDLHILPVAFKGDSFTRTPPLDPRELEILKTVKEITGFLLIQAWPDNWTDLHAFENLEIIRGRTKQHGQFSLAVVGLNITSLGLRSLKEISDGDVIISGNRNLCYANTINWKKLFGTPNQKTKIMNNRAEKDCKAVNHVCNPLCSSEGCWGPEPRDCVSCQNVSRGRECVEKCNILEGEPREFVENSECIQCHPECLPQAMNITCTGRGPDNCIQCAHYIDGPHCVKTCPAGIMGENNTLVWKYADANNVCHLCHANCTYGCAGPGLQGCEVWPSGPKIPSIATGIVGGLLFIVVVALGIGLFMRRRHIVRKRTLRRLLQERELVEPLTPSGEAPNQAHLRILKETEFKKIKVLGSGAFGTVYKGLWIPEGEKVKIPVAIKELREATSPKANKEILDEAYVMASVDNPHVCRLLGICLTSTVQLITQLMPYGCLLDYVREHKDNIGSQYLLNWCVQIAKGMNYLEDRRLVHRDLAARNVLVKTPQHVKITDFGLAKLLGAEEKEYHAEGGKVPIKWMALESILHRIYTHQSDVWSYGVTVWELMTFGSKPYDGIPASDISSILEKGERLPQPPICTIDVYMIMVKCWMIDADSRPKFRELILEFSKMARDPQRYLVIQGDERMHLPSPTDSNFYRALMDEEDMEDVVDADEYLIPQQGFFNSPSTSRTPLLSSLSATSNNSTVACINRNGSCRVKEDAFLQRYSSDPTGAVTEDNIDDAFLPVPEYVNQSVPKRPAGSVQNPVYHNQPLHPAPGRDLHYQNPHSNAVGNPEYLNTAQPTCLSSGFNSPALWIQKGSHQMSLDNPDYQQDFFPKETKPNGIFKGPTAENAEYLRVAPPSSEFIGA

SMILES | inhibition of growth at 100 µM (HeLa [1]) | IC50 (K562 [2]) | inhibition of growth at 100 µM [3] | IC50 (HeLa [4]) | inhibition of growth at 100 µM (K562 [5]) | inhibition of growth at 100 µM (HepG2 [6]) | inhibition of growth at 100 µM (DLD-1 [7]) | IC50 (HepG2 [8]) | IC50 (DLD-1 [9]) | IC50 [10] | IC50 [12] | also measured
COc1cc(C=O)ccc1OC(=O)c1cc(-c2ccccc2)n(-c2ccc(S(N)(=O)=O)cc2)n1 | 79% | 17.2 µM | 95% | 27 µM | 82% | 84% | 100% | 38 µM |  |  |  | 
NS(=O)(=O)c1ccc(NC(=O)c2cc(-c3ccc(Cl)cc3)n(-c3ccccc3)n2)cc1 | 0% | 15.4 µM | 99% |  | 86% | 27% | 94% |  | 29.8 µM | 2.7 µM | 49.7 µM | IC50 [11]: 3 µM
CNC(=O)c1cc(Oc2ccc(NC(=O)Nc3ccc(Cl)c(C(F)(F)F)c3)cc2)ccn1 [SORAFENIB] |  |  |  |  |  |  |  |  |  | 3.5 µM |  | 
Cc1ccc(-c2cc(C(=O)Nc3ccc(S(N)(=O)=O)cc3)nn2-c2ccccc2)cc1 | 0% |  | 96% | 16.7 µM | 65% | 101% | 99% | 3.6 µM | 16.1 µM | > 1000 µM | 13 µM | inhibition [11]: inactive
COc1ccc(-c2cc(C(=O)Oc3ccc(C=O)cc3OC)nn2-c2ccccc2)cc1OC | 0% |  | 86% |  | 58% | 74% | 96% |  |  |  |  | 
Cc1ccc(-c2cc(C(=O)Nc3ccc(S(C)(=O)=O)cc3)nn2-c2ccccc2)cc1 | 78% |  | 87% | 63 µM | 58% | 94% | 87% | 10 µM | 22 µM | 110 µM |  | IC50 [11]: > 200 µM
COc1ccc(-c2cc(C(=O)Nc3ccc(S(N)(=O)=O)cc3)nn2-c2ccccc2)cc1OC | 51% |  | 91% |  | 58% | 90% | 56% |  |  |  |  | 
COc1cc(C=O)ccc1OC(=O)c1cc(-c2ccc(C)cc2)n(-c2ccccc2)n1 | 84% | 14.8 µM | 89% | 15 µM | 79% | 50% | 70% | 8.9 µM |  |  |  | Activity (HeLa [13]): 64%; Activity (HeLa [14]): 5.9%; Activity (HeLa [15]): 5%; Activity (HeLa [16]): 8%; Activity (HeLa [17]): 86%; Activity (HeLa [18]): 33%; Activity (HeLa [19]): 23%; Activity (HeLa [20]): 21%; Activity (HeLa [21]): 48%; Activity (HeLa [22]): 59%
COc1cccc2c1C(=O)c1c(O)c3c(c(O)c1C2=O)C[C@@](O)(C(C)=O)C[C@@H]3O[C@H]1C[C@H](N)[C@H](O)[C@H](C)O1 [DAUNORUBICIN] | 100% | 13.3 µM | 92% | 0.1 µM | 100% | 100% | 84.2% | 22 µM | 30 µM |  | 9 µM | 
COc1ccc(-c2cc(C(=O)Oc3ccc(C=O)cc3OC)nn2-c2ccc(S(N)(=O)=O)cc2)cc1 | 78% | 14.9 µM | 95% | 31 µM | 85% | 82% | 104% | 7.8 µM | 5.6 µM | > 1000 µM | 5 µM | IC50 [11]: 0.9 µM
COc1ccc(-c2cc(C(=O)Oc3ccc(C=O)cc3OC)nn2-c2ccc(S(N)(=O)=O)cc2)cc1OC | 70% |  | 66% |  | 77% | 92% | 75% |  |  |  |  | 
COc1ccc(-c2cc(C(=O)Nc3ccc(S(C)(=O)=O)cc3)nn2-c2ccccc2)cc1 | 76% |  | 90% |  | 41% | 62% | 64% |  |  |  | 41 µM | 
COc1cc(C=O)ccc1OC(=O)c1cc(-c2ccc(Cl)cc2)n(-c2ccccc2)n1 | 51% |  | 92% |  | 66% | 20% | 74% |  |  |  |  | 
NS(=O)(=O)c1ccc(NC(=O)c2cc(-c3ccccc3)n(-c3ccccc3)n2)cc1 | 12% |  | 91% |  | 89% | 107% | 64% | 5.9 µM |  |  | 18 µM | 
COc1cc(C=O)ccc1OC(=O)c1cc(-c2ccccc2)n(-c2ccccc2)n1 | 31% |  | 91% |  | 52% | 60% | 71% |  |  |  |  | 
COc1cc(C=O)ccc1OC(=O)c1cc(-c2ccc(C)cc2)n(-c2ccc(S(N)(=O)=O)cc2)n1 | 95% | 7.6 µM | 87% | 14 µM | 95% | 101% | 100% | 2.7 µM | 17 µM | 50 µM | 17 µM | Activity (HeLa [13]): 4%; Activity (HeLa [23]): 25%; Activity (HeLa [16]): 83%; Activity (HeLa [24]): 19%; Activity (HeLa [25]): 5.9%; Activity (HeLa [26]): 0.4%; Activity (HeLa [20]): 7%; IC50 [11]: 2 µM
CS(=O)(=O)c1ccc(NC(=O)c2cc(-c3ccc(Cl)cc3)n(-c3ccccc3)n2)cc1 | 101% | 21.8 µM | 94% | 16 µM | 88% | 50% | 98% |  | 5.7 µM | 1.7 µM | 25 µM | Activity (HeLa [13]): 6%; Activity (HeLa [14]): 1.4%; Activity (HeLa [16]): 82%; Activity (HeLa [17]): 94%; Activity (HeLa [18]): 18%; Activity (HeLa [20]): 6%; Activity (HeLa [21]): 75%; IC50 [11]: > 200 µM
COc1ccc(-c2cc(C(=O)Oc3ccc(C=O)cc3OC)nn2-c2ccccc2)cc1 | 30% |  | 91% |  | 61% | 11% | 61% |  |  |  |  | 
COc1ccc(-c2cc(C(=O)Nc3ccc(S(C)(=O)=O)cc3)nn2-c2ccccc2)cc1OC | 19% |  | 89% |  | 62% | 37% | 74% |  |  |  |  | 
CS(=O)(=O)c1ccc(NC(=O)c2cc(-c3ccccc3)n(-c3ccccc3)n2)cc1 | 28% |  | 86% |  | 32% | 41% | 81% |  | 33.1 µM |  |  | 
COc1cc(C=O)ccc1OC(=O)c1cc(-c2ccc(Cl)cc2)n(-c2ccc(S(N)(=O)=O)cc2)n1 | 51% | 17.1 µM | 94% |  | 85% | 54% | 97% |  | 5 µM |  | 49.8 µM | 
COc1ccc(-c2cc(C(=O)Nc3ccc(S(N)(=O)=O)cc3)nn2-c2ccccc2)cc1 | 74% |  | 78% |  | 26% | 26% | 69% |  |  |  |  | 
